{
  "source": "patent US8959984B2",
  "about": "“Proteome-wide quantification of small molecule binding to cellular target proteins” (priority 2007, dated 2015)",
  "assay_in_all_cases": "binding to VI16742 beads (HeLa lysate, SILAC MS)",
  "key": {"[1]": {"target": "T1, HGK/ZC1 (MAP4K4, IPI00604647) (Homo sapiens, UniProt O95819)", "T1 construct": "endogenous in cells; host or cells: HeLa S3", "description": "(§1) In an alternative implementation of the chemical proteomic approach according to the invention, the broadly-selective pyrido[2,3-d]pyrimidine-based kinase inhibitor VI16742 has been used for affinity capture (FIG. 10a). […] As shown by gene ontology analysis, the corresponding molecular functions were highly over-represented in proteins specifically retained by the inhibitor resin (FIG. 10b)."}, "[2]": {"target": "T2, IKKb (IKBKB, IPI00024709) (Homo sapiens, UniProt O14920)", "T2 construct": "endogenous in cells; host or cells: HeLa S3", "T2 sequence (O14920 1-756)": "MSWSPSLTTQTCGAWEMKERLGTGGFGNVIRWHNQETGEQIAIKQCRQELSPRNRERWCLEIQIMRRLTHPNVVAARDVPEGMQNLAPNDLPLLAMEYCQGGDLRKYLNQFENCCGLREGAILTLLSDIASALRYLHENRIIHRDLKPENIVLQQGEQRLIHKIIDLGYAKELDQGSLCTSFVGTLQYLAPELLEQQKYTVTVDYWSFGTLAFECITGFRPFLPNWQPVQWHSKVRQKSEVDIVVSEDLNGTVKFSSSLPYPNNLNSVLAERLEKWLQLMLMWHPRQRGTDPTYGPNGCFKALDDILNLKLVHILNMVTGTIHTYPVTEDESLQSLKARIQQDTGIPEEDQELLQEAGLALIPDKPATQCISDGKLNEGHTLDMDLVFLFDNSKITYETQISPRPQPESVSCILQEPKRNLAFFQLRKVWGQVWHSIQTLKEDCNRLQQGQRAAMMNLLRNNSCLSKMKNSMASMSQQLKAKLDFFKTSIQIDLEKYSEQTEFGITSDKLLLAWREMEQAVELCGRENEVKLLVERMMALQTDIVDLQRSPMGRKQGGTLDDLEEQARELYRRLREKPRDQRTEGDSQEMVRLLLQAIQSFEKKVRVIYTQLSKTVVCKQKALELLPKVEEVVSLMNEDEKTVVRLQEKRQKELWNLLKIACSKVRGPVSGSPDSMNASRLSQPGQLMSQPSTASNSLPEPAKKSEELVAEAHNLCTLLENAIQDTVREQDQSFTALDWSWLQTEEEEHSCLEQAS", "description": "as §1"}, "[3]": {"target": "T3, CHED (CDC2L5, IPI00456970) (Homo sapiens, UniProt Q14004)", "T3 construct": "endogenous in cells; host or cells: HeLa S3 cell lysate", "T3 sequence (Q14004 whole entry)": "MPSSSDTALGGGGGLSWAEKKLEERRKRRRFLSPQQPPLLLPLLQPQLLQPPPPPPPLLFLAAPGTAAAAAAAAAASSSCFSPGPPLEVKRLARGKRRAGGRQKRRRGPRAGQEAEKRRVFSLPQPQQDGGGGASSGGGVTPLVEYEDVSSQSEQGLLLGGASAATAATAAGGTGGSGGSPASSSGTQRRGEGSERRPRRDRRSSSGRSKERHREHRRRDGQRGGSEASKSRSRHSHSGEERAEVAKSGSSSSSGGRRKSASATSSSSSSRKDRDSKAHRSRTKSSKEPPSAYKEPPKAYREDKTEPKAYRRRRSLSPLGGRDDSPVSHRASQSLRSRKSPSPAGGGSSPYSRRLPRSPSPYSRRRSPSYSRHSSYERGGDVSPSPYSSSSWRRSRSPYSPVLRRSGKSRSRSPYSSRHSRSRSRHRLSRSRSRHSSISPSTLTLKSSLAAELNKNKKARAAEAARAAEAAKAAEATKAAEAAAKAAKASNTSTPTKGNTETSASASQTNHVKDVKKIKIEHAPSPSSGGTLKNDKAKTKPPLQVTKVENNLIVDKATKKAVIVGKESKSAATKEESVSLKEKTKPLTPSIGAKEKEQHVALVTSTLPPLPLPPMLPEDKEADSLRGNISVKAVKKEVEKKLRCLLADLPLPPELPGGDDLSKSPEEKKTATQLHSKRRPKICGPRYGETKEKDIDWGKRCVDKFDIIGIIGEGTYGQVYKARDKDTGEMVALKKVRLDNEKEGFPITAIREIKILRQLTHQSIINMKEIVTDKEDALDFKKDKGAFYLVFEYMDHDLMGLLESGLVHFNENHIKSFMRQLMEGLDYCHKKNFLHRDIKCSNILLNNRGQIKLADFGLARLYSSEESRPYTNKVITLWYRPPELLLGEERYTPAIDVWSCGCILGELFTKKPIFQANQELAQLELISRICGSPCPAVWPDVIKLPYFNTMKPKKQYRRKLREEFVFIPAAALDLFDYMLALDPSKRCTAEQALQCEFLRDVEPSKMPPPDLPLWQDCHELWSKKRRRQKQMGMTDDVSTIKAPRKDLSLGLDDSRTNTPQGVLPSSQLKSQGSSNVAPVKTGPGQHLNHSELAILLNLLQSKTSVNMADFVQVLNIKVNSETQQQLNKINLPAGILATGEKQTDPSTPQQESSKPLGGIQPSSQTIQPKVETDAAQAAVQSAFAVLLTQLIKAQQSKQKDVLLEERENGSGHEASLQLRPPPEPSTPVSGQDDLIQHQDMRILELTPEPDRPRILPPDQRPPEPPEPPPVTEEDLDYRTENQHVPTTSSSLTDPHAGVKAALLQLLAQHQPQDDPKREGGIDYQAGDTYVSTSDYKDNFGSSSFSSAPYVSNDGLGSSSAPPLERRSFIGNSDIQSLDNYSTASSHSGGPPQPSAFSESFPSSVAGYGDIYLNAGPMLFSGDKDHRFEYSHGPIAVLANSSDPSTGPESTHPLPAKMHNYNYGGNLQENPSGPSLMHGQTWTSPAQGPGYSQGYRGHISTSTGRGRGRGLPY", "description": "as §1"}, "[4]": {"target": "T4, ROCK2 (IPI00307155) (Homo sapiens, UniProt O75116)", "T4 construct": "endogenous in cells; host or cells: HeLa S3", "description": "as §1"}, "[5]": {"target": "T5, BUB1 (IPI00783305) (Homo sapiens, UniProt O43683)", "T5 construct": "endogenous in cells; host or cells: HeLa S3", "T5 sequence (O43683 whole entry)": "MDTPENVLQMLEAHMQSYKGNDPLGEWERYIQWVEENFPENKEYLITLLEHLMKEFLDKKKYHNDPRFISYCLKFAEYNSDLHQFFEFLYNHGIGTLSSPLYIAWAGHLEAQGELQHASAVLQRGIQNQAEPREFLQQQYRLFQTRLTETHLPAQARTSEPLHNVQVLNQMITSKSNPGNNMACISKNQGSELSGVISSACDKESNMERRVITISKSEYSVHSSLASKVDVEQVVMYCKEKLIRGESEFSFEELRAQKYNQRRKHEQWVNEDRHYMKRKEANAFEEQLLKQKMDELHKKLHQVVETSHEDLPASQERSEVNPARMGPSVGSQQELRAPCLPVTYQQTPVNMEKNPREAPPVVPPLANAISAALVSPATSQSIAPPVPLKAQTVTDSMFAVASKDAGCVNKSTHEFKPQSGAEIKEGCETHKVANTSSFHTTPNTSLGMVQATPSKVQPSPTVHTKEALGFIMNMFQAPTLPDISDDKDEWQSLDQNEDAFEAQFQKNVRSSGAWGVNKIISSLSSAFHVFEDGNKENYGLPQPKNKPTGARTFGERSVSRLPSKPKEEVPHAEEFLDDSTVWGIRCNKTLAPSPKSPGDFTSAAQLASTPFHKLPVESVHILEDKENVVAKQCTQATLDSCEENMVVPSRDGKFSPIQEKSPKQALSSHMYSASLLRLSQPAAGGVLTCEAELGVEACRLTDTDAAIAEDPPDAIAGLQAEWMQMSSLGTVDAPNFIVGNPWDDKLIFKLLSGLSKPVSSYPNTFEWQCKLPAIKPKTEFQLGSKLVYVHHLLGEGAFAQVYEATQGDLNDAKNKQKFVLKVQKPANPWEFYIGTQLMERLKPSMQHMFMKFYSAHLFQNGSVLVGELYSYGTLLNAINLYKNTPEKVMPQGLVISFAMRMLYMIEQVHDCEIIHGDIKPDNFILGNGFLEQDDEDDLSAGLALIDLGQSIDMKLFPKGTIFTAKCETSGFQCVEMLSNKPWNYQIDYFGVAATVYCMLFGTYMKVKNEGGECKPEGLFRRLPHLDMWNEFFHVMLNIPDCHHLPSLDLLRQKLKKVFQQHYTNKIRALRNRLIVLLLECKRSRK", "description": "as §1"}, "[6]": {"target": "T6, ILK (IPI00013219) (Homo sapiens, UniProt Q13418)", "T6 construct": "endogenous in cells; host or cells: HeLa S3", "T6 sequence (Q13418 1-452)": "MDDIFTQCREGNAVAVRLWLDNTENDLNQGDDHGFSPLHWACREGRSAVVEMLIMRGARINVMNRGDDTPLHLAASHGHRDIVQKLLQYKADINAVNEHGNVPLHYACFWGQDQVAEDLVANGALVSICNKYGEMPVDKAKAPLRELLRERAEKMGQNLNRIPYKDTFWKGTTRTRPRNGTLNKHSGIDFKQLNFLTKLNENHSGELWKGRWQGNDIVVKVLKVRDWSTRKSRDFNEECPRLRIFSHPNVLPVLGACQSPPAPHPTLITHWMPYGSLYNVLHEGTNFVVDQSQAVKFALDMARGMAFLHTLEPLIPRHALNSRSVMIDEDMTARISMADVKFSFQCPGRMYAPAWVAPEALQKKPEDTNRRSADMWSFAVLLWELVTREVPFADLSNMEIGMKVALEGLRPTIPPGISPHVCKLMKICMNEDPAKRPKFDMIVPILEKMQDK", "description": "as §1"}, "[7]": {"target": "T7, MAP2K6 (IPI00003814) (Homo sapiens, UniProt P52564)", "T7 construct": "endogenous in cells; host or cells: HeLa S3", "T7 sequence (P52564 1-334)": "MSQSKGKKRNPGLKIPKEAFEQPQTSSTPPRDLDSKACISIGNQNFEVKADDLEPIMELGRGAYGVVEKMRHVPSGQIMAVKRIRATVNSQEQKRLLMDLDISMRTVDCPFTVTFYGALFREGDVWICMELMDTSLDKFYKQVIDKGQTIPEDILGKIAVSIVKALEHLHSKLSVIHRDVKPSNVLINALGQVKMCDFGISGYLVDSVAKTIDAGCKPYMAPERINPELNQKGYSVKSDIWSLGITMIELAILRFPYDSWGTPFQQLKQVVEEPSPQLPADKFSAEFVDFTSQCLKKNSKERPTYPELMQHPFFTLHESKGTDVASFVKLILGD", "description": "as §1"}, "[8]": {"target": "T8, CRK7 (CRKRS, IPI00868781) (Homo sapiens, UniProt Q9NYV4)", "T8 construct": "endogenous in cells; host or cells: HeLa S3 cell lysate", "T8 sequence (Q9NYV4 whole entry)": "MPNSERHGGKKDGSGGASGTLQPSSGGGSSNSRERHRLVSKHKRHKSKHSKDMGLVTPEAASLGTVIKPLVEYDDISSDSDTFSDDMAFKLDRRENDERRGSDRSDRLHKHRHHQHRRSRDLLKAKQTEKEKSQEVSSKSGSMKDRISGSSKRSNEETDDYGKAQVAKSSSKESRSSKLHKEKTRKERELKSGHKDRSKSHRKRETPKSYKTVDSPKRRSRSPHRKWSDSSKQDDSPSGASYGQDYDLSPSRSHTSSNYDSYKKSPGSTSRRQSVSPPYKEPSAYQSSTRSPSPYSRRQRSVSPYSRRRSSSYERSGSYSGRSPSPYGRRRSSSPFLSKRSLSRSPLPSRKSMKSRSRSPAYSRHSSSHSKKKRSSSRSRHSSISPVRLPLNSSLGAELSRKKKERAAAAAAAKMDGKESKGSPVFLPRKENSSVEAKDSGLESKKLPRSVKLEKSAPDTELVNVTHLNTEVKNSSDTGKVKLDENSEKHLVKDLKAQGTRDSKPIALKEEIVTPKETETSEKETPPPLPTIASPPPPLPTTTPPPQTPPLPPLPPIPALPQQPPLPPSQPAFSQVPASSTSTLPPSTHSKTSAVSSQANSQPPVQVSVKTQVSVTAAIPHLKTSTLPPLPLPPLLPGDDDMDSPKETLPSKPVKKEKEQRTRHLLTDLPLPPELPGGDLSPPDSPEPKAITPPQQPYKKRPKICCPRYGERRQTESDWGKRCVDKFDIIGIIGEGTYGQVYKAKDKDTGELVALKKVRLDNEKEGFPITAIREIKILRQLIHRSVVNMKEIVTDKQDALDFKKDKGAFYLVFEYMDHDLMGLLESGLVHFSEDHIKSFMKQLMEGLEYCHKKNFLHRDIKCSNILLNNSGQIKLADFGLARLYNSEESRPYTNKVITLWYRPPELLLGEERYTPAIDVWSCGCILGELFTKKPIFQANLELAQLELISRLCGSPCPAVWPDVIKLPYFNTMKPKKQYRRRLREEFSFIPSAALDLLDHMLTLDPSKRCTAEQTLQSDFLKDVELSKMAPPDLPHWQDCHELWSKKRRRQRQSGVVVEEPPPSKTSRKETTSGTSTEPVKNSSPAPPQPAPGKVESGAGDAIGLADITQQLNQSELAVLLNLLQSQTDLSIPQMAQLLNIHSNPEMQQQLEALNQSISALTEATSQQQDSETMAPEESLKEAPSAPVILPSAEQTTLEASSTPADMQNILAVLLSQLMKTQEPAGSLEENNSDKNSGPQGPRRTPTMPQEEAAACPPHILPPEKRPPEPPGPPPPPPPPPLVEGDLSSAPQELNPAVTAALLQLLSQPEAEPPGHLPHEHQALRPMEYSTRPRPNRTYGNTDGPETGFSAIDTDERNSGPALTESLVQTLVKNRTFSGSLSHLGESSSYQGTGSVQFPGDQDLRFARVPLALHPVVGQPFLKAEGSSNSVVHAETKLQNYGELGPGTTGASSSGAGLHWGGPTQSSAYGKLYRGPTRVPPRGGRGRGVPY", "description": "as §1"}, "[9]": {"conditions": "control beads vs first incubation"}},
  "data": [
    {"smiles": "CC(C)n1c(=O)ccc2cnc(Nc3ccc(OCCN)cc3)nc21", "note": "[V16742]", "values": [
      {"measurement": "rAVERAGE (CTRL/1 INC)", "setting": "[1]; [9]", "result": 0.05},
      {"measurement": "Ki", "setting": "[1]; immobilized VI16742", "result": 75.7, "unit": "µM"},
      {"measurement": "rAVERAGE (2 INC/1 INC)", "setting": "[1]; second vs first incubation", "result": 0.59},
      {"measurement": "rAVERAGE (CTRL/1 INC)", "setting": "[2]; [9]", "result": 0.06},
      {"measurement": "Ki", "setting": "[2]; immobilized VI16742", "result": 201, "unit": "µM"},
      {"measurement": "rAVERAGE (2 INC/1 INC)", "setting": "[2]; second vs first incubation", "result": 0.79},
      {"measurement": "r (3 MG/1 MG LYSATE)", "setting": "[3]; 3 mg vs 1 mg lysate", "result": 5.31},
      {"measurement": "r (5 h/2.5 h INC. TIME)", "setting": "[3]; 5 h vs 2.5 h incubation time", "result": 1.42},
      {"measurement": "rAVERAGE (CTRL/1 INC)", "setting": "[3]; [9]", "result": 0.05},
      {"measurement": "Ki", "setting": "[3]; immobilized VI16742", "result": 84.6, "unit": "µM"},
      {"measurement": "rAVERAGE (2 INC/1 INC)", "setting": "[3]; second vs first incubation", "result": 0.62},
      {"measurement": "r (3 MG/1 MG LYSATE)", "setting": "[4]; 3 mg vs 1 mg lysate", "result": 3.18},
      {"measurement": "r (5 h/2.5 h INC. TIME)", "setting": "[4]; 5 h vs 2.5 h incubation time", "result": 1.74},
      {"measurement": "rAVERAGE (CTRL/1 INC)", "setting": "[4]; [9]", "result": 0.08},
      {"measurement": "Ki", "setting": "[4]; immobilized VI16742", "result": 255, "unit": "µM"},
      {"measurement": "rAVERAGE (2 INC/1 INC)", "setting": "[4]; second vs first incubation", "result": 0.83},
      {"measurement": "rAVERAGE (CTRL/1 INC)", "setting": "[5]; [9]", "result": 0.05},
      {"measurement": "Ki", "setting": "[5]; immobilized VI16742", "result": 161, "unit": "µM"},
      {"measurement": "rAVERAGE (2 INC/1 INC)", "setting": "[5]; second vs first incubation", "result": 0.76},
      {"measurement": "r (5 h/2.5 h INC. TIME)", "setting": "[6]; 5 h vs 2.5 h incubation time", "result": 1.47},
      {"measurement": "rAVERAGE (CTRL/1 INC)", "setting": "[6]; [9]", "result": 0.03},
      {"measurement": "Ki", "setting": "[6]; immobilized VI16742", "result": 172, "unit": "µM"},
      {"measurement": "rAVERAGE (2 INC/1 INC)", "setting": "[6]; second vs first incubation", "result": 0.77},
      {"measurement": "r (3 MG/1 MG LYSATE)", "setting": "[7]; 3 mg vs 1 mg lysate", "result": 2.41},
      {"measurement": "r (5 h/2.5 h INC. TIME)", "setting": "[7]; 5 h vs 2.5 h incubation time", "result": 1.36},
      {"measurement": "rAVERAGE (CTRL/1 INC)", "setting": "[7]; [9]", "result": 0.05},
      {"measurement": "Ki", "setting": "[7]; immobilized VI16742", "result": 178, "unit": "µM"},
      {"measurement": "rAVERAGE (2 INC/1 INC)", "setting": "[7]; second vs first incubation", "result": 0.77},
      {"measurement": "r (3 MG/1 MG LYSATE)", "setting": "[8]; 3 mg vs 1 mg lysate", "result": 3.21},
      {"measurement": "r (5 h/2.5 h INC. TIME)", "setting": "[8]; 5 h vs 2.5 h incubation time", "result": 1.04},
      {"measurement": "rAVERAGE (CTRL/1 INC)", "setting": "[8]; [9]", "result": 0.07},
      {"measurement": "Ki", "setting": "[8]; immobilized VI16742", "result": 90.7, "unit": "µM"},
      {"measurement": "rAVERAGE (2 INC/1 INC)", "setting": "[8]; second vs first incubation", "result": 0.64}
    ]}
  ]
}
